Reference: US10822315B2, “5-benzylidene-4-oxazolidinones” (NORTH CAROLINA STATE UNIVERSITY, priority 2016, dated 2020)
≈ marks a conversion by molar mass, not a printed value. Read-outs that look alike come from different tables or passages of the source.

Legend:
red blood cells = assay: Lysis of red blood cells; format: cell-based; details: 100 μM
MRSA ATCC BAA-44 [1] = assay: Biofilm dispersion assay (crystal violet, pre-formed biofilm); format: cell-based; details: Staphylococcus aureus, Table 2
MRSA ATCC BAA-44 [2] = assay: Broth microdilution MIC determination; format: cell-based, Staphylococcus aureus; details: for MIC: Staphylococcus aureus
MRSA ATCC 33591 = assay: Broth microdilution MIC determination; format: cell-based; details: Staphylococcus aureus, Table 1, read-out: Antimicrobial Activity MIC
Protocol: (§1) General Information. Methicillin-resistant Staphylococcus aureus (MRSA) strains were obtained from the Laboratory of Professor Christian Melander (NCSU) ATCC (33591, BAA 44, BAA 1685, BAA 1770, BAA 43 300) and colonies were grown on solid media as instructed. Mueller-Hinton broth (MHB, 211443-BD), tryptic soy broth (TSB, Remel: R455052) and D-glucose (CAS: 492-62-6) were purchased from Fisher Scientific. Tryptic soy agar (TSA, cat. #22091) and Linezolid (cat. # P70014) were purchased from Sigma-Aldrich. Bacteria for biofilm inhibition and dispersion assays were cultured overnight in TSBG (tryptic soy broth with 0.5% glucose supplement). All assays were run in duplicate and repeated at least two separate times for MIC assays and at least four separate times for biofilm inhibition and dispersion assays. All compounds were dissolved molecular biology grade DMSO as 100 mM stock solutions and further diluted to 10 and 1 mM stock solutions as needed. Optical densities were measured using a Thermo Scientific Genesys 20 spectrophotometer. Data for biofilm inhibition and dispersion assays was collected using a BioTek ELx808 Microplate Reader. All graphs were generated and analyzed using GraphPad Prism 7.
Broth microdilution protocol for minimum inhibition concentration (MIC) determination. Studies were performed using the standard method prescribed by the Clinical and Laboratory Standards Institute (CLSI) M07-A8, Vol. 29 (2), which is hereby incorporated herein by reference. Briefly, fresh Mueller-Hinton broth (MHB) ˜3 ml, was inoculated (5×10^5 CFU mL^−1) with MRSA (ATCC 33591) methicillin-resistant Staphylococcus aureus. The resulting bacterial suspension was aliquoted (1 mL) into culture tubes and test compound (10 mM DMSO stock solution) was added to reach the final concentration of the interest. Bacteria not treated with the antimicrobial compound served as the control. Rows 2-12 of a 96-well microtiter plate were filled with remaining bacterial subcultures. The samples containing test compound were aliquoted (200 μL) into the first row wells of the microtiter plate (2 wells per compound). Row 1 wells were mixed 6-8 times and 100 μL was transferred down to row 2. Row 2 wells were mixed 6-8 times, followed by a 100 μL transfer from row 2 down to row 3. The rest of the rows of the plate were serially diluted in similar fashion. The plate was covered with sealing tape for 96-well plates (ThermoFisher) and incubated under stationary conditions at 37° C. A duplicate of the plate was prepared.

MRSA ATCC BAA-44 [3] = assay: Biofilm dispersion assay (crystal violet, pre-formed biofilm); format: cell-based, Staphylococcus aureus; details: Staphylococcus aureus; for % dispersion of pre-formed biofilm at 5 µM: MRSA ATCC BAA 44; for IC50: MRSA ATCC BAA-44
Protocol: as §1
Biofilm Dispersion Assay. Studies were performed using the standard method described in J. J. Richards, T. E. Ballard and C. Melander, Org Biomol Chem, 2008, 6, 1356-1363. Briefly, dispersion assays were performed by taking an overnight culture of bacterial strain and subculturing it at an OD600 of 0.01 into the necessary growth liquid medium. The resulting bacterial suspension was aliquoted (100 μL) into the wells of a 96-well PVC microtiter plate. Plates were then wrapped in GLAD Press n' Seal followed by an incubation under stationary conditions at an ambient temperature. After 24 hours, the media was discarded from the wells and the plates were washed thoroughly with tap water. Predetermined concentrations of the test compound were then made in the same medium used to initially grow the biofilms and then aliquoted (100 μL) into the wells of the 96-well PVC microtiter plate with the established biofilms. Plates were then wrapped in GLAD Press n'Seal and incubated under stationary conditions at 37° C. After 24 hours, the media was discarded from the wells and the plates were washed thoroughly with tap water. Plates were then stained with 100 μL of 0.1% solution of crystal violet (CV) and then incubated at room temperature for 30 minutes. Plates were then washed with tap water again and the remaining stain was solubilized with 200 μL of 95% ethanol. Biofilm dispersion was quantitated by measuring the OD540 for each well by transferring 125 μL of the solubilized CV stain into a polystyrene microtiter dish for analysis. Biofilm inhibition was quantified by measuring the OD540 of each well and calculated as a percentage of the control (no compound), a negative control lane wherein no biofilm was formed served as a background and was subtracted out.
(§2) Percent dispersion was then plotted against concentration in Prism 7. Each of the four experiments were plotted separately and analyzed by a normalized nonlinear regression. The IC50 values reported represent an arithmetic mean of the four IC50 values. Biofilm data represent four separate experiments, with each experiment performed in duplicate (average of 8 data points for each concentration tested, unless otherwise noted)

MRSA ATCC BAA-44 [4] = assay: Biofilm inhibition assay (crystal violet); format: cell-based, Staphylococcus aureus; details: for inhibition at 5 µM / IC50 / inhibition at 40 µM: Staphylococcus aureus; for IC50: MRSA ATCC BAA-44; for inhibition at 40 µM: Table 2; for fold reduction in biofilm inhibition activity: 7 versus 4, 8 versus 1
Protocol: as §1
Biofilm Inhibition Assay. Studies were performed using the standard method described in S. A. Rogers and C. Melander, Angew Chem Int Ed, 2008, 47, 5229-5231. Briefly, biofilm inhibition assays were performed by taking an overnight culture of bacterial strain and subculturing it at an OD600 of 0.01 into the necessary growth liquid medium (LB for A. baumannii, LBNS for P. aeruginosa, Stainer-Scholte medium that was supplemented with 10 μL/mL of 100× nutrient complex for B. bronchiseptica and TSB w/0.3% glucose for S. aureus) for the strain. The compound being tested was then added at a predetermined concentration and then aliquoted (100 μL) into the wells of a 96-well PVC microtiter plate (wells not used for samples are filled with 100 μL of de-ionized water). Plates were then wrapped in GLAD Press n' Seal and incubated under stationary conditions at 37° C. After 24 hours, the media was discarded from the wells and the plates were washed thoroughly with tap water. Plates were then stained with 100 μL of 0.1% solution of crystal violet (CV) and then incubated at an ambient temperature for 30 minutes. Sample plates were then washed with tap water again and the remaining stain was solubilized with 200 μL of 95% ethanol. Biofilm inhibition was quantitated by measuring the OD540 for each well by transferring 125 μL of the solubilized CV stain into a polystyrene microtiter dish for analysis. Biofilm inhibition was quantified by measuring the OD540 of each well and calculated as a percentage of the control (no compound); a negative control lane wherein no biofilm was formed served as a background and was subtracted out.
as §2, with “inhibition” for “dispersion”

[5] = MRSA ATCC BAA 44, Table 2, read-out: MIC
[6] = MRSA ATCC BAA-44, Table 1, read-out: Antimicrobial Activity MIC

| SMILES | red blood cells lysed (red blood cells) | inhibition at 40 µM (MRSA ATCC BAA-44 [1]) | antimicrobial activity (in words) (MRSA ATCC BAA-44 [2]; MRSA ATCC BAA-44) | MIC (MRSA ATCC BAA-44 [2]; [5]) | MIC (MRSA ATCC BAA-44 [2]; [6]) | MIC (MRSA ATCC 33591) | % dispersion of pre-formed biofilm at 5 µM (MRSA ATCC BAA-44 [3]) | IC50 (MRSA ATCC BAA-44 [3]) | inhibition at 5 µM (MRSA ATCC BAA-44 [4]; 5 μM, MRSA ATCC BAA 44) | IC50 (MRSA ATCC BAA-44 [4]) | inhibition at 40 µM (MRSA ATCC BAA-44 [4]; MRSA ATCC BAA 44) | dose dependence of biofilm inhibition (in words) (MRSA ATCC BAA-44 [4]; relative to MIC) | fold reduction in antimicrobial activity (MRSA ATCC BAA-44 [2]; 7 compared with 4) | fold reduction in biofilm inhibition activity (MRSA ATCC BAA-44 [4]) | biofilm activity (in words) (MRSA ATCC BAA-44 [4]; even at 40 μM) | % Biofilm Inhibition (5 μM) (MRSA ATCC BAA-44 [4]; 5 μM, MRSA ATCC BAA 44) |
| --- | --- | --- | --- | --- | --- | --- | --- | --- | --- | --- | --- | --- | --- | --- | --- | --- |
| CCCCCCCCC(Cl)(Cl)C1NC(=O)/C(=C/c2ccc(C(F)(F)F)cc2)O1 (stereo not drawn) [Compound 3, (Z)-2-(1,1-dichlorononyl)-5-(4-(trifluoromethyl)benzylidene)oxazolidin-4-one] | 7% | 19% | completely abolished | > 128 µg/mL | > 128 µg/mL | > 128 µg/mL | 19% | 6.6 µM | 68% | 1.7 µM | 75% | dose-dependent biofilm inhibition at concentrations well below their MIC |  |  |  |  |
| CC(Cl)(Cl)C1NC(=O)/C(=C/c2ccc(C(F)(F)F)cc2)O1 (stereo not drawn) [Compound 4, (Z)-2-(1,1-dichloroethyl)-5-(4-(trifluoromethyl)benzylidene)oxazolidin-4-one] |  |  |  | 32 µg/mL (≈ 94.1 µM) | 32 µg/mL (≈ 94.1 µM) | 32 µg/mL (≈ 94.1 µM) | 50% | 5 µM | 55% | 3.6 µM |  |  |  |  |  |  |
| C#CCC(Cl)(Cl)C1NC(=O)/C(=C/c2ccc(C(F)(F)F)cc2)O1 (stereo not drawn) [Compound 5, (Z)-2-(1,1-dichlorobut-3-yn-1-yl)-5-(4-(trifluoromethyl)benzylidene)oxazolidin-4-one] |  |  |  | 16 µg/mL (≈ 43.9 µM) | 16 µg/mL (≈ 43.9 µM) | 16 µg/mL (≈ 43.9 µM) | 63% | 6 µM | 64% | 1.9 µM |  |  |  |  |  |  |
| CCCCC(Cl)(Cl)C1NC(=O)/C(=C/c2ccccc2)O1 (stereo not drawn) [Compound 6, (Z)-5-benzylidene-2-(1,1-dichloropentyl)oxazolidin-4-one] |  | 26% |  | 64 µg/mL (≈ 204 µM) | 64 µg/mL (≈ 204 µM) | 64 µg/mL (≈ 204 µM) | 14% | 5.3 µM | 51% | 3.2 µM |  |  |  |  |  |  |
| CC(C)(C)C1NC(=O)/C(=C/c2ccc(C(F)(F)F)cc2)O1 (stereo not drawn) [Compound 7, (Z)-2-(tert-butyl)-5-(4-(trifluoromethyl)benzylidene)oxazolidin-4-one] |  | 31% |  | 128 µg/mL (≈ 428 µM) | 128 µg/mL (≈ 428 µM) | 128 µg/mL (≈ 428 µM) | 5.7% | 9.2 µM | 31% | 7.3 µM | 51% |  | 4 fold | 3 fold |  |  |
| CCCCCC1NC(=O)/C(=C/c2ccc(C(F)(F)F)cc2)O1 (stereo not drawn) [Compound 8, (Z)-2-pentyl-5-(4-(trifluoromethyl)benzylidene)oxazolidin-4-one] |  |  |  | 64 µg/mL (≈ 204 µM) | 16 µg/mL (≈ 51.1 µM) | 16 µg/mL (≈ 51.1 µM) |  |  | 17% | 7.3 µM | 53% |  |  | 5 fold |  |  |
| CCCCCCNC(=O)C(=O)Cc1ccc(C(F)(F)F)cc1 [Compound 9, N-hexyl-2-oxo-3-(4-(trifluoromethyl)phenyl)propanamide] |  | -6.5% | no antimicrobial activity | > 128 µg/mL | > 128 µg/mL | > 128 µg/mL | -24% | > 20 µM | 24% | > 20 µM | 41% |  |  |  | only modest biofilm activity |  |
| CCCCC(Cl)(Cl)C1NC(=O)/C(=C/c2ccc(OC)cc2)O1 (stereo not drawn) [Compound 11, (Z)-2-(1,1-di-Chloropentyl)-5-(4-methoxybenzylidene)oxazolidin-4-one] |  | 58% |  | > 128 µg/mL |  |  | 49% |  | < 50% |  | 52% |  |  |  |  | 39% |
